Test results: patent US20260273131A1, “Cell graft delivered in a delivery system and use thereof in regenerative medicine” (China Medical University, priority 2022, published 2026)
Values joined by “and” are separate entries in the source; they are usually repeats but may differ in a detail not shown here. Identical values can stand only once. Where no end group is shown, it is not given here.

Legend:
hMSCs [1] = experiment: Fluorescent peptide binding to hMSCs (confocal microscopy, imaging flow cytometry); type: cell-based, human; details: for binding to hMSCs: fluorescent peptide 0, 2.5, 10, 40 μM, 37° C.; for percentage of cells surrounded by FITC-conjugated BiFP (imaging flow cytometry): increasing concentration from 2.5 to 40 μM
Experimental: FIG. 2a and FIG. 2b show the results of the analysis of hMSCs binding to BiFP. The hMSCs were labeled with Hochest 33258, and incubated with FITC-labeled BiFP for 1 h, followed by imaging flow cytometry on an Amnis Imaging Cytometer (left). Bar=10 μm. Quantification of the percentage of BiFP-bound hMSCs (right).
The FITC-labeled BiFP or rhodamine-labeled collagen XII-targeting peptide (Col12-TP) are chemically synthesized by Biomertech (USA) or ABI (USA) to identify peptide binding by confocal microscopic observation. Briefly, for FITC-BiFP or rhodamine-Col12-TP treatment, 1×10^6 hMSCs incubated with 1 μM DilC18 in 37° C. for 10 min and then incubated in final 200 μl PBS with fluorescent peptide at 0, 2.5, 10, 40 μM in 37° C. for 30 min with gently mixing every 10 min. Cells are counterstained with mounting solution containing DAPI. Peptide fluorescence was taken using an ImageXpress Micro Confocal High Content Imaging system (Molecular Devices, Sunnyvale, CA, USA).

[2] = tested on: chondrocyte line hiP cells; experiment: Col12-TP binding to chondrocyte line hiP cells; type: cell-based
rat OA knee joints = experiment: Rat papain/cysteine OA model, histology and modified Mankin score 8 weeks post-transplantation; type: in vivo
Experimental: (§1) FIG. 4a and FIG. 4b show the FITC-fluorescence-labeled BiFP without or with blocking peptide (FIG. 4a) and the DilC18-fluorescence-labeled rat MSCs (rMSCs) without or with delivery in BiFP (BiFP+rMSCs) (FIG. 4b) are intra-articularly injected into rat OA knee joints pre-established with papain/cysteine, respectively. The whole joint capsules are removed at 24 h post-injection, and articular surfaces of the distal femur are observed under a two-photon microscope. Representative images of second harmonic generation (SHG) signals in collagen and fluorescent signals of BiFP (FIG. 4a) and rMSCs (FIG. 4b) are shown (left). Quantification of overall fluorescence areas (right). FIG. 4c and FIG. 4d show the representative images of Hematoxylin and eosin (H&E) staining (FIG. 4c), and safranin-O/fast green staining (FIG. 4d) of distal femurs of sham-control or OA knee joints collected 8 weeks post-transplantation without or with BiFP, rMSCs, and rMSCs delivered in BiFP (BiFP+rMSCs). […] Bar=50 μm. The data are shown as mean±SD. * p<0.05, ** p<0.01 and **** p<0.0001 as determined by Student's t test (2 groups) or one-way ANOVA (≥3 groups).
Furthermore, after incubation with BiFP, MSCs are immediately injected into OA joints in a rat model, and the joints are subjected to histological examination 8 weeks post-transplantation.

[3] = Particle size distribution by dynamic light scattering (DLS); type: physicochemical; details: 0.2 mg/ml in PBS at 25° C.
Experimental: (§2) The triple helix structure of BiFP, collagen, or denatured collagen peptides was measured at 0.2 mg/ml.
(§3) In the present invention, a bifunctional peptide (BiFP) is synthesized to prevent complicated chemical steps and improve efficiency. A 42-residue peptide (BiFP) with a sequence where GPOGPOGPOGPOGFOGERGPOGPOGPOGPODLQYWYPIWDTH, O is hydroxyproline, was prepared in PBS, pH 7.4 at 25° C. by Biomedical Translation Research Center (Taiwan). The triple helix structure of BiFP, collagen, or denatured collagen peptides was measured at 0.2 mg/ml, respectively. The particle size distribution of 0.2 mg/ml BiFP in PBS at 25° C. was examined by dynamic light scattering (DLS). […] Size was evaluated using dynamic light scattering: Malvern ZS90 zetasizer (Malvern Instruments Corp, Malvern, UK).

[4] = Circular dichroism (CD) spectroscopy of secondary structure; type: physicochemical; details: 0.2 mg/ml; PBS, pH 7.4
Experimental: as §2, §3

hMSCs [5] = experiment: hMSC viability, Calcein-AM / ethidium homodimer staining; type: cell-based, human; details: compared to Col12-TP; 0, 2.5, 10, 40 μM
Experimental: (§4) The hMSCs are incubated with Col12-TP or BiFP peptide for 1 h, and stained with Calcein-AM (green) and ethidium homodimer (magenta), followed by confocal microscopic observation (left). Bar=50 μm. The quantification of viable cell percentages (right). […] The hMSCs are stained with 1,9 dimethylmethlyene blue (DMB) dye and analyzed at OD 525 nm. Results are normalized by PicoGreen dsDNA quantitation. The data are shown as mean±SD. * p<0.05, ** p<0.01, *** p<0.001 and **** p<0.0001 as determined by Student's t test (2 groups) or the ANOVA (≥3 groups).
For BiFP or Col12-TP treatment, 1×10^6 hMSCs incubated in final 200 μl PBS with peptide at 0, 2.5, 10, 40 μM in 37° C. for 30 mins with gently mixing every 10 min. Cells are stained with Calcein-AM (ThermoFisher) for live hMSCs and ethidium homodimer (Life Technologies) for dead hMSCs, respectively. Labeled hMSCs are visualized with ImageXpress Micro Confocal High Content Imaging system (Molecular Devices, Sunnyvale, CA, USA). Three independent images each group are counted live hMSCs and quantified.

hMSCs [6] = experiment: WST-1 proliferation assay of peptide-bound hMSCs; type: cell-based, human; details: compared to Col12-TP
hMSCs [7] = experiment: Real-time RT-PCR of chondrogenic genes in peptide-bound hMSCs; type: cell-based, human; details: compared to Col12-TP; at 1 week
hMSCs [8] = experiment: sGAG production in peptide-bound hMSCs (DMB dye); type: cell-based, human; details: compared to Col12-TP; at 2 weeks
Experimental: as §4

OA cartilage = experiment: OA-specific targeting of labeled BiFP, two-photon microscopy of rat OA joints; type: in vivo; details: intra-articular injection, rat OA joint, 24 h post-injection
Experimental: as §1
Since BiFP can home to OA cartilage and the chondrogenesis-inducing ability of integrin α2β1 is likely to induce MSCs to undergo chondrogenesis, the BiFP is applied in the delivery of human MSCs to the OA cartilage surface for OA regenerative medicine.

[9] = tested on: intervertebral disc (IVD); experiment: Rat intervertebral disc damage model induced by 20 G needle puncture; type: in vivo; details: rat tail
Source text: FIG. 7a is the schematic flowchart of the experimental design for intervertebral disc (IVD) regeneration by PBS, BiFP, EGFP-expressing hMSCs without or with delivery in BiFP (BiFP+hMSCs) in the rat intervertebral disc damage model induced by 20 G needle puncture. The rats were sacrificed at the indicated time point. The rat tail tissues were subjected to X-Ray, T2-weighted MRI, Hematoxylin and eosin (H&E), Safranin O/fast green stain, immunohistochemistry and immunofluorescence analysis. […] FIG. 7d and FIG. 7e show the representative images of H&E staining and safranin-O/fast green staining of NP tissues, respectively. […] Positive signal is visualized as brown color (DAB). […] Cell nuclei were counterstained with 4′, 6-diamidino-2-phenylindole (DAPI). Bar=50 μm. […] X-ray, T2-weighted MRI and histological, histochemical and immunofluorescence analyses reveal the successful induction of IVD damage when compared PBS group with sham control group (FIG. 7b-7e).

corneal epithelium = experiment: Rat corneal epithelial injury model induced by n-heptanol; type: in vivo; details: one eye drop (20 μl); up to 2 weeks after injury
Experimental: FIG. 8a is the schematic flowchart of the experimental design for corneal epithelium regeneration by EGFP-expressing hMSCs without or with delivery in BiFP (BiFP+hMSCs) in the rat corneal epithelium damage model. […] Representative fluorescein-stained cornea images are shown at indicated time points (left). Quantification of the percentage of healed area was calculated using ImageJ Fiji software (right). * p<0.05, ** p<0.01 and *** p<0.001 as determined by One Way ANOVA. […] Bar=50 μm. […] Positive signal is visualized as brown color (DAB) and NC is negative control. Bar=50 μm. To further confirm the utility of BiFP as a cell carrier and expand the application of BiFP-delivered MSCs in corneal epithelial defect regeneration, a rat model of severe and corneal epithelial injury induced by repeated n-heptanol administration was utilized.

Substance | binding to hMSCs (hMSCs [1]) | binding to collagen XII-expressing hiP cells [2] | histology (H&E, safranin-O) of OA knee joints (rat OA knee joints) | particle size (main size) by dynamic light scattering [3] | conformation in solution by CD spectroscopy [4] | percentage of cells surrounded by FITC-conjugated BiFP (imaging flow cytometry) (hMSCs [1]) | cell viability of hMSCs (hMSCs [5]) | cell proliferation of hMSCs (hMSCs [6]) | expression of chondrogenic genes sox9, col2a1 and aggrecan (hMSCs [7]) | synthesis of glycosaminoglycan (hMSCs [8]) | fluorescent signal (red dots) in OA cartilage (OA cartilage) | intervertebral disc regeneration / damage (T2 MRI, safranin-O) [9] | corneal epithelial defect (fluorescein staining) (corneal epithelium)
Col12-TP: collagen XII-targeting peptide of the applicant's previous application TW202128730 (DLQYWYPIWDTH; also: rhodamine-labeled) [reference compound] | cannot bind to hMSCs | can bind to Col12-TP | still exhibited severe OA | – | – | – | – | – | – | – | – | – | –
GPOGPOGPOGPOGFOGERGPOGPOGPOGPODLQYWYPIWDTH [BiFP] | can bind to hMSCs in a dose-dependent manner | – | still exhibited severe OA | ~ 1.914 nm and 1.914 nm | stable triple-helical conformation | increase in the percentage of cells surrounded by FITC-conjugated BiFP | increase cell viability | increase | increased expression of chondrogenic genes | enhance synthesis of glycosaminoglycan | apparent red dots are observed | still exhibited severe IVD damage | remained markedly defective even 2 weeks after injury
GPOGPOGPOGPOGVMGFOGPOGPOGPOGPODLQYWYPIWDTH [BiFP containing a GVMGFO sequence] | can also bind to hMSCs | – | – | – | – | increase in the percentage of cells surrounded by FITC-conjugated BiFP | – | – | – | – | – | – | –
